Results: patent US5262417A, “Antibacterial quinolone compounds” (The Upjohn Company, priority 1991, dated 1993)
Values after ≈ are worked out from the molar mass of the structure shown. Read-outs that look alike come from different tables or passages of the source. Values belong to the molecule of their own block, whether it stands above or below them.

Assays:
Experiment in all cases: Minimum inhibitory concentration (MIC) by agar dilution
Type in all cases: cell-based
Enterobacter cloacae = test system: Enterobacter cloacae
Method: (§1) Briefly, MIC values are determined in unsupplemented Mueller Hinton Agar (MHA). The compounds tested are diluted serially into molten MHA at 47° C. The agar is poured into petri dishes and allowed to harden. The various bacteria used for testing are grown overnight on MHA at 35° C. and transferred to Trypticase soy broth (TSB) until a turbidity of 0.5 McFarland standard is obtained. The bacteria are diluted one to 20 in TSB and inoculated on the plates (1 μl using a Steers replicator).
as §1, with “Compounds of this invention can also be tested for in vitro antimicrobial activity using standard testing procedures such as the determination of minimum inhibitory concentration (MIC) by agar dilution as described in "Methods for Dilution Antimicrobial Susceptibility Tests for Bacteria That Grow Aerobically" (MFT) published Jan. […] Briefly,” for “Briefly,”, “(1μl” for “(1 μl”

Streptococcus faecalis = conditions: Enterococcus faecalis
Method: as §1, with “The antibacterial activity of the compounds of Formula IC was determined by using standard testing procedures such as the determination of minimum inhibitory concentration (MIC) by agar dilution as described in "Methods for Dilution Antimicrobial Susceptibility Tests for Bacteria That Grow Aerobically" (MFT) published January 1983 by the National Committee for Clinical Laboratory Standards, 771 East Lancaster Avenue, Villanova, Pa. 19084, USA. Briefly,” for “Briefly,”
(§2) Compounds of this invention can also be tested for in vitro antimicrobial activity using standard testing procedures such as the determination of minimum inhibitory concentration (MIC) by agar dilution as described in "Methods for Dilution Antimicrobial Susceptibility Tests for Bacteria That Grow Aerobically" (MFT) published Jan. 1983 by the National Committee for Clinical Laboratory Standards, 771 East Lancaster Avenue, Villanova, Penna. 19084, USA. Briefly, MIC values are determined in unsupplemented Mueller Hinton Agar (MHA). The compounds tested are diluted serially into molten MHA at 47° C. The agar is poured into petri dishes and allowed to harden. The various bacteria used for testing are grown overnight on MHA at 35° C. and transferred to Trypticase soy broth (TSB) until a turbidity of 0.5 McFarland standard is obtained. The bacteria are diluted one to 20 in TSB and inoculated on the plates (1μl using a Steers replicator). […] The MIC test results of selected of Formula B compounds of this invention are found in Tables B2-B9.

Klebsiella pneumoniae = test system: Klebsiella pneumoniae
Method: (§3) The antibacterial activity of the compounds of Formula IC was determined by using standard testing procedures such as the determination of minimum inhibitory concentration (MIC) by agar dilution as described in "Methods for Dilution Antimicrobial Susceptibility Tests for Bacteria That Grow Aerobically" (MFT) published January 1983 by the National Committee for Clinical Laboratory Standards, 771 East Lancaster Avenue, Villanova, Pa. 19084, USA. Briefly, MIC values are determined in unsupplemented Mueller Hinton Agar (MHA). The compounds tested are diluted serially into molten MHA at 47° C. The agar is poured into petri dishes and allowed to harden. The various bacteria used for testing are grown overnight on MHA at 35° C. and transferred to Trypticase soy broth (TSB) until a turbidity of 0.5 McFarland standard is obtained. The bacteria are diluted one to 20 in TSB and inoculated on the plates (1 μl using a Steers replicator).
as §2

Streptococcus pyogenes = conditions: Streptococcus pyogenes
Method: as §3, §2

[1] = test system: Acinetobacter calcoaceticus; conditions: Acinetobacter calcoaceticus
Method: as §3, §2

Citerobacter freundii = test system: Citerobacter freundii
Method: as §3, §2

[2] = test system: Staphylococcus epidermidis; conditions: 20 h
Method: as §3, §2

Pseudomonas aeruginosa = conditions: Pseudomonas aeruginosa
Method: as §3, §2

Staphylococcus aureus = conditions: Staphylococcus aureus
Method: as §3, §2

Proteus penneri = conditions: Proteus penneri
Method: as §3, §2

Escherichia coli = conditions: Escherichia coli
Method: as §3, §2

Streptococcus pneumoniae = conditions: Streptococcus pneumoniae
Method: as §3, §2

Serratia marcescens = conditions: 20 h
Method: as §3, §2

[3] = 20 h, read-out: MINIMUM INHIBITORY CONCENTRATION
[4] = read-out: MINIMUM INHIBITORY CONCENTRATION

SMILES: CN1CCN(c2c(F)cc3c(=O)c(C(=O)O)cn(C45CC(C4)C5)c3c2F)CC1 [No. 99, 7-(4-methyl-1-piperazinyl)-1-(bicyclo[1.1.1]pent-1-yl)-1,4-dihydro-6,8-difluoro-4-oxo-3-quinolinecarboxylic acid]
MIC (Enterobacter cloacae; [3]): 0.25 µg/mL (≈ 0.642 µM)
MIC (Streptococcus faecalis; [3]): 4 µg/mL (≈ 10.3 µM)
MIC (Klebsiella pneumoniae; [3]): 0.5 µg/mL (≈ 1.28 µM)
MIC (Streptococcus pyogenes; 20 h, read-out: MINIMUM INHIBITORY CONCENTRATION, Cult No. 152, MHA): 2 µg/mL (≈ 5.14 µM)
MIC ([1]; 20 h, read-out: MINIMUM INHIBITORY CONCENTRATION, Cult No. 12170, MHA): 0.125 µg/mL (≈ 0.321 µM)
MIC (Citerobacter freundii; [3]): 0.25 µg/mL (≈ 0.642 µM)
MIC [2, 4]: 0.5 µg/mL (≈ 1.28 µM)
MIC (Pseudomonas aeruginosa; 20 h, read-out: MINIMUM INHIBITORY CONCENTRATION, Cult No. 6676, MHA): 4 µg/mL (≈ 10.3 µM)
MIC (Pseudomonas aeruginosa; 20 h, read-out: MINIMUM INHIBITORY CONCENTRATION, Cult No. 9191, MHA): 4 µg/mL (≈ 10.3 µM)
MIC (Pseudomonas aeruginosa; 20 h, read-out: MINIMUM INHIBITORY CONCENTRATION, Cult No. 12120, MHA): 2 µg/mL (≈ 5.14 µM)
MIC (Staphylococcus aureus; 20 h, read-out: MINIMUM INHIBITORY CONCENTRATION, Cult No. 6685, MHA): 0.5 µg/mL (≈ 1.28 µM)
MIC (Staphylococcus aureus; 20 h, read-out: MINIMUM INHIBITORY CONCENTRATION, Cult No. 9213, MHA): 0.5 µg/mL (≈ 1.28 µM)
MIC (Staphylococcus aureus; 20 h, read-out: MINIMUM INHIBITORY CONCENTRATION, Cult No. 9218, MHA): 0.5 µg/mL (≈ 1.28 µM)
MIC (Staphylococcus aureus; 20 h, read-out: MINIMUM INHIBITORY CONCENTRATION, Cult No. 9271, MHA): 0.5 µg/mL (≈ 1.28 µM)
MIC (Proteus penneri; 20 h, read-out: MINIMUM INHIBITORY CONCENTRATION, Cult No. 9679, MHA): 2 µg/mL (≈ 5.14 µM)
MIC (Escherichia coli; 20 h, read-out: MINIMUM INHIBITORY CONCENTRATION, Cult No. 6674, MHA): 0.25 µg/mL (≈ 0.642 µM)
MIC (Escherichia coli; 20 h, read-out: MINIMUM INHIBITORY CONCENTRATION, Cult No. 9451, MHA): 0.255 µg/mL (≈ 0.655 µM)
MIC (Escherichia coli; 20 h, read-out: MINIMUM INHIBITORY CONCENTRATION, Cult No. 9855, MHA): 0.25 µg/mL (≈ 0.642 µM)
MIC (Escherichia coli; 20 h, read-out: MINIMUM INHIBITORY CONCENTRATION, Cult No. 9952, MHA): 0.125 µg/mL (≈ 0.321 µM)
MIC (Streptococcus pneumoniae; 20 h, read-out: MINIMUM INHIBITORY CONCENTRATION, Cult No. 41, MHA): 2 µg/mL (≈ 5.14 µM)
MIC (Serratia marcescens; [4]): 1 µg/mL (≈ 2.57 µM)

MIC (Enterobacter cloacae; UC9382, 20 h, E. cloacae UC 9382, Table CI, read-out: Minimum Inhibitory Concentration): 0.25 µg/mL (≈ 0.666 µM)
MIC (Streptococcus faecalis; UC9217, 20 h, S. faecalis UC 9217, Table CI, read-out: Minimum Inhibitory Concentration): 2 µg/mL (≈ 5.33 µM)
MIC (Klebsiella pneumoniae; UC12081, 20 h, K. pneumoniae UC 12081, Table CI, read-out: Minimum Inhibitory Concentration): 0.25 µg/mL (≈ 0.666 µM)
MIC (Streptococcus pyogenes; UC152, 20 h, S. pyogenes UC 152, Table CI, read-out: Minimum Inhibitory Concentration): 1 µg/mL (≈ 2.66 µM)
MIC ([1]; UC12170, 20 h, A. calcoaceticus UC 12170, Table CI, read-out: Minimum Inhibitory Concentration): 0.5 µg/mL (≈ 1.33 µM)
MIC (Citerobacter freundii; Citrobacter freundii, UC3507, 20 h, C. freundii UC 3507, Table CI, read-out: Minimum Inhibitory Concentration): 0.125 µg/mL (≈ 0.333 µM)
MIC ([2]; S. epidermidis 30031, Table CI, read-out: Minimum Inhibitory Concentration): 0.25 µg/mL (≈ 0.666 µM)
MIC (Pseudomonas aeruginosa; UC6676, 20 h, Ps. aeruginosa UC 6676, Table CI, read-out: Minimum Inhibitory Concentration): 2 µg/mL (≈ 5.33 µM)
MIC (Pseudomonas aeruginosa; UC9191, 20 h, Ps. aeruginosa UC 9191, Table CI, read-out: Minimum Inhibitory Concentration): 2 µg/mL (≈ 5.33 µM)
MIC (Pseudomonas aeruginosa; UC12120, 20 h, Ps. aeruginosa UC 12120, Table CI, read-out: Minimum Inhibitory Concentration): 1 µg/mL (≈ 2.66 µM)
MIC (Staphylococcus aureus; UC6685, 20 h, S. aureus UC 6685, Table CI, read-out: Minimum Inhibitory Concentration): 0.25 µg/mL (≈ 0.666 µM)
MIC (Staphylococcus aureus; UC9213, 20 h, S. aureus UC 9213, Table CI, read-out: Minimum Inhibitory Concentration): 0.5 µg/mL (≈ 1.33 µM)
MIC (Staphylococcus aureus; UC9218, 20 h, S. aureus UC 9218, Table CI, read-out: Minimum Inhibitory Concentration): 0.5 µg/mL (≈ 1.33 µM)
MIC (Staphylococcus aureus; UC9271, 20 h, S. aureus UC 9271, Table CI, read-out: Minimum Inhibitory Concentration): 0.5 µg/mL (≈ 1.33 µM)
MIC (Proteus penneri; UC9679, 20 h, P. penneri UC 9679, Table CI, read-out: Minimum Inhibitory Concentration): 1 µg/mL (≈ 2.66 µM)
MIC (Escherichia coli; UC6674, 20 h, E. coli UC 6674, Table CI, read-out: Minimum Inhibitory Concentration): 0.125 µg/mL (≈ 0.333 µM)
MIC (Escherichia coli; UC9451, 20 h, E. coli UC 9451, Table CI, read-out: Minimum Inhibitory Concentration): 0.125 µg/mL (≈ 0.333 µM)
MIC (Escherichia coli; UC9855, 20 h, E. coli UC 9855, Table CI, read-out: Minimum Inhibitory Concentration): 0.25 µg/mL (≈ 0.666 µM)
MIC (Escherichia coli; UC9952, 20 h, E. coli UC 9952, Table CI, read-out: Minimum Inhibitory Concentration): 0.125 µg/mL (≈ 0.333 µM)
MIC (Streptococcus pneumoniae; UC41, 20 h, S. pneumoniae UC 41, Table CI, read-out: Minimum Inhibitory Concentration): 2 µg/mL (≈ 5.33 µM)
MIC (Serratia marcescens; S. marcescens, UC number not given, Table CI, read-out: Minimum Inhibitory Concentration): 1 µg/mL (≈ 2.66 µM)
SMILES: C#CC(C)(C)n1cc(C(=O)O)c(=O)c2cc(F)c(N3CCC(N)C3)c(F)c21 (racemic) [B]
